Assay [1] concerns CTBP mRNA. Briefly: CTBP mRNA expression in primary granulosa cell culture by semi-quantitative RT-PCR. The class given is cell-based, rat. As to conditions: 6 h; for CTBP mRNA level, inhibitor alone in the absence of FSH: CHX 10 μg/ml or α-amanitin 30 μg/ml, compared to control. On the procedure: FIG. 3. CTBP mRNA expression in primary granulosa cell culture. Granulosa cells were isolated from the ovaries of 24 day old immature rat primed with 17β-estradiol. The cells were cultured in the presence of 30 ng/ml FSH for up to 48 h, and RNA was extracted and amplified for CTBP using quantitative RT-PCR. In addition, L-19 mRNA was probed as an internal control. The CTBP values were normalized with the corresponding values of L-19 and two independent experimental values were averaged.
FIG. 5. Effects of cycloheximide and α-amanitin treatment on the FSH/forskolin-induced expression of CTBP mRNA. Granulosa cells were isolated from 17β-estradiol primed 24-day old immature rat ovaries and cultured with FSH (30 ng/ml) or forskolin (10 μM, FSK) in the presence or absence of cycloheximide (10 μg/ml, CHX) or α-amanitin (30 μg/ml, AMA) for the 6 h. CHX, a translation inhibitor, and AMA, a transcription inhibitor, were pretreated to the cell cultures one hour before hormone treatment. Total RNA was isolated and analyzed for CTBP and L-19 mRNA by semi-quantitative RT-PCR assay using 23 cycles for CTBP and 20 cycles for L-19. L-19 was used as an internal control. Values shown are the range of two independent experiments along with the mean, indicated by bars.
For granulosa cell culture, immature rats were daily injected sub cutaneously with 1.5 mg of 17β-estradiol at 21, 22 and 23 days of age. […] After cells were washed three times in 4F, they were plated on serum-coated, 6-well plates at a density of ˜1×10^6 cells per […] and incubated in the humidified atmosphere of 5% CO2 at 37 C. After 16 h, FSH (30 ng/ml) or forskolin (10 μM) was added to the cultures. For the inhibition of protein synthesis or transcription, cycloheximide (10 μg/ml) or α-amanitin (30 μg/ml) was added, respectively, 1 h before hormone treatment.
RT-PCR was performed as previously described (Ko et al. 1999 Endocrinology 140:5185-519411). Total RNA (1-2 μg) was reverse-transcribed at 37° C. in 20 μl using random hexamer (500 ng) and MMLV reverse transcriptase (10 units) (New England BioLabs, Boston, Mass.). Complementary DNA (cDNA) in 2 μl was added for a total 25 μl reaction mixture containing the primers (200 ng each), 0.4 mM dNTP mixture, and Taq DNA polymerase (2.5 U) in 1×PCR buffer (10 mM Tris, pH 8.3, 50 mM KCl, 1.5 mM MgCl2, 0.01% gelatin). All PCR amplifications were carried out for 20, 25, 30 cycles on a MJ research Minicycler (MJ Research, MA). PCR products were separated by 2% agarose gel electrophoresis, stained with SYBR® Green I (Molecular Probes), and visualized on a phosphoimager. The primers were 5′-ctg act ggc gag aac tgg atg-3′SEQ ID NO. 1) and 5′-aca gta tgc agg ctt cgc tcc-3′ (SEQ ID NO. 2) for 160 bp CTBP, 5′-gct ttc cct ctg ttg acc cac-3′(SEQ ID NO. 3) and 5′-aga tgt tga ggg cag ctc gat-3′(SEQ ID NO. 4) for 255 bp inhibin α, 5′-ctg aag gtc aaa ggg aat gtg-3′ (SEQ ID NO. 5) and 5′-gga cag agt ctt gat gat ctc-3′ (SEQ ID NO. 6) for 194 bp L-19 as an internal control.

Assay [2] deals with granulosa cells. As to the kind of experiment: Estrogen production by granulosa cells, assayed in culture media. The format is cell-based. The conditions noted are these: for FSH-induced estrogen production: FSH pre-treated granulosa cells. Here is the method: FIG. 7. Effects of T3 hormone on estrogen production. (A) Granulosa cells were treated with increasing concentrations of FSH and the culture media were assayed for estrogen production. (B) Granulosa cells that were pre-treated with FSH were treated with T3 for varying time periods, 0-4 days. The culture media were assayed for estrogen. (C) Granulosa cells were treated with none, thyroid hormone T3, FSH, or FSH and T3 combo for 3 or 5 days. The culture media were assayed for estrogen production. […] The culture media were assayed for estrogen production.

For the compound `C[C@@H]1C[C@@H]([C@H](O)CC2CC(=O)NC(=O)C2)C(=O)[C@@H](C)C1` [cycloheximide], the “CTBP mRNA level, inhibitor alone in the absence of FSH” value in assay [1] is “increased the CTBP mRNA level”. Also, in assay [1] (CHX 10 μg/ml added 1 h before FSH 30 ng/ml, compared with absence of CHX), the “FSH-dependent decrease in CTBP mRNA in the presence of inhibitor” value is reported as “significantly less”. Moreover, the “forskolin-induced reduction of CTBP mRNA level in the presence of inhibitor” value in assay [1] (cycloheximide 10 μg/ml plus forskolin 10 μM) is recorded as “partially prevented”.

As for `N[C@@H](Cc1cc(I)c(Oc2ccc(O)c(I)c2)c(I)c1)C(=O)O` [T3], in assay [2] (FSH and T3 combo for 3 or 5 days), the FSH-induced estrogen synthesis result is listed as “suppresses”. Moreover, the FSH-induced estrogen production result in assay [2] (T3 by day 4) is listed as “completely blocked”; in assay [2] (T3 within 24 h), “suppressed”. Further, in assay [2] (hCG and T3 combo for 3 or 5 days), the hCG-dependent estrogen production result is “stimulates”.

Take `CC[C@H](C)[C@@H]1NC(=O)CNC(=O)[C@@H]2Cc3c([nH]c4cc(O)ccc34)[S+]([O-])C[C@@H](NC(=O)CNC1=O)C(=O)N[C@@H](CC(N)=O)C(=O)N1C[C@H](O)C[C@H]1C(=O)N[C@@H]([C@@H](C)[C@@H](O)CO)C(=O)N2` (stereo in doubt) [α-amanitin]: the “CTBP mRNA level, inhibitor alone in the absence of FSH” value in assay [1] is recorded as “did not significantly impact the expression level”. Further, in assay [1] (α-amanitin 30 μg/ml plus FSH 30 ng/ml), the “CTBP mRNA expression, co-treatment with FSH” value is “completely abolished”.

Values taken from US20050148505A1, “Genes and agents to regulate follicular development, ovulation cycle and steriodogenesis” (priority 2003, published 2005).
